# Measurements from patent publication US11447479B2, “Compounds active towards nuclear receptors” (NUEVOLUTION A/S, priority 2019, dated 2022).
# Molecular target: T1, RORγ (Homo sapiens, UniProt P51449)
# T1 construct: Gal4 (galactose-responsive transcription factor); expressed in transfected cells; host or cells: HEK293
# T1 sequence (P51449 269-508 limits assumed): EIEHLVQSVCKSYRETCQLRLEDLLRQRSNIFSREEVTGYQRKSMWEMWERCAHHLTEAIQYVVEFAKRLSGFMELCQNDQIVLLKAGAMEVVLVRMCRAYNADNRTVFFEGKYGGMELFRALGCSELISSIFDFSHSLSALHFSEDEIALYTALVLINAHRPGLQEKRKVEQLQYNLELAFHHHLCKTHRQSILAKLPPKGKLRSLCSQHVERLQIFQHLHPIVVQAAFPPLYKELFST
# Assay: RORγ Reporter Assay (Gal4)
# Assay type: cell-based
# Settings: HEK293 co-transfected with RORγ LBD-Gal4 and luciferase reporter, 24 h incubation, absolute IC50; read-out: IC50
# Description: RORγ Reporter Assay (Gal4)
# The HEK293 cell line is co-transfected transiently with two plasmids, one with the RORγ ligand-binding domain fused to galactose-responsive transcription factor (Gal4), and the other with the luciferase reporter gene and Gal binding sites (UAS). This construction allows to determine the RORγ activity in a cellular system through the measurement of luminescence.
# A suspension of RORγ reporter cells was dispensed into plates and cultured 2 h at 37° C. and 5% CO2. Media formulation consisted in DMEM/F-12 medium (Gibco) supplemented with 10% heat inactivated FBS (Sigma-Aldrich), non-essential aminoacids (Sigma-Aldrich), 2 mM Glutamax (Gibco) and 100 U/mF penicillin (Sigma-Aldrich). Dose-response curves with compounds were prepared in 100% DMSO and further diluted […] in culture medium. Compound solutions were added to the plate containing cells (final DMSO concentration of 0.1%) and incubated for 24 h at 37° C. and 5% CO2. Luciferase detection reagent was added to each well, and relative light units […] were quantified from each assay well using a plate reading luminometer.
# Values of average RFU±S.D. were computed for all treatment sets, followed by the calculations of percent-reduction of RORγ activity in response to respective test compound. The following formula was used: activity=100*[1−[x test compound/average vehicle]where the theoretical minimum reduction (0% reduction).
row,Structure (SMILES),IC50
1,"NC(=O)CN1CC[C@H](CNc2ncnc(N3CCOC[C@@H]3c3ccc(C(F)(F)F)cn3)c2F)[C@@H](F)C1 (single isomer, unassigned) [Example H6-13-1, 2-((3R*,4R*)-3-fluoro-4-(((5-fluoro-6-((S)-3-(5-(trifluoromethyl)pyridin-2-yl)morpholino)pyrimidin-4-yl)amino)methyl)piperidin-1-yl)acetamide]",160 nM
2,"CC(C)(C(N)=O)N1CCC(CNc2ncnc(N3CCOC[C@@H]3c3ccc(C(F)(F)F)cn3)c2F)CC1 [Example H6-3, (S)-2-(4-(((5-fluoro-6-(3-(5-(trifluoromethyl)pyridin-2-yl)morpholino)pyrimidin-4-yl)amino)methyl)piperidin-1-yl)-2-methylpropanamide]",280 nM
3,"C[C@@H]1COC[C@H](c2ccc(C(F)(F)F)cc2)N1c1ncnc(NC[C@@H]2CCN(CC(N)=O)C[C@H]2O)c1F (single isomer, unassigned) [Example H6-22-1]",44 nM
4,"NC(=O)CN1CCC(CNc2ncnc(N3CC(F)(F)C[C@@H]3c3ccc(C(F)(F)F)cc3)c2F)C(F)(F)C1 (single isomer, unassigned) [Example H6-15-1, 2-((R*)-4-(((6-((R)-4,4-difluoro-2-(4-(trifluoromethyl)phenyl)pyrrolidin-1-yl)-5-fluoropyrimidin-4-yl)amino)methyl)-3,3-difluoropiperidin-1-yl)acetamide]",9 nM
5,"NC(=O)CN1CCC(CNc2ncnc(N3CCC[C@@H]3c3ccc(C(F)(F)F)cc3)c2F)CC1 [Example H6-25-1, (R)-2-(4-(((5-fluoro-6-(2-(4-(trifluoromethyl)phenyl)pyrrolidin-1-yl)pyrimidin-4-yl)amino)methyl)piperidin-1-yl)acetamide]",66 nM
6,"NC(=O)CN1CCC(CNc2ncnc(N3CCC3c3ccc(C(F)(F)F)cc3)c2F)CC1 (centres unmarked) [Example H6-28, 2-(4-(((5-fluoro-6-(2-(4-(trifluoromethyl)phenyl)azetidin-1-yl)pyrimidin-4-yl)amino)methyl)piperidin-1-yl)acetamide]",300 nM
7,"NC(=O)CN1CCC(CNc2ncnc(N3CCOC[C@@H]3c3ccc(C(F)(F)F)cc3)c2F)C(F)(F)C1 (single isomer, unassigned) [Example H6-9-1, 2-((R*)-3,3-difluoro-4-(((5-fluoro-6-((S)-3-(4-(trifluoromethyl)phenyl)morpholino)pyrimidin-4-yl)amino)methyl)piperidin-1-yl)acetamide]",100 nM
8,"NC(=O)CN1CC[C@H](CNc2ncnc(N3CCOC[C@@H]3c3ccc(C(F)(F)F)cc3)c2F)[C@@H](F)C1 (single isomer, unassigned) [Example H6-10-2, 2-((3R*,4R*)-3-fluoro-4-(((5-fluoro-6-((S)-3-(4-(trifluoromethyl)phenyl)morpholino)pyrimidin-4-yl)amino)methyl)piperidin-1-yl)acetamide]",13 nM
9,"C[C@@H]1COC[C@H](c2cccc(C(F)(F)F)c2)N1c1ncnc(NC[C@@H]2CCN(CC(N)=O)C[C@H]2O)c1F (single isomer, unassigned) [Example H6-21-3]",86 nM
10,"NC(=O)CN1CC[C@H](CNc2ncnc(N3CC(F)(F)C[C@@H]3c3ccc(C(F)(F)F)cc3)c2F)[C@@H](F)C1 (single isomer, unassigned) [Example H6-16-2, 2-((3R*,4R*)-4-(((6-((R)-4,4-difluoro-2-(4-(trifluoromethyl)phenyl)pyrrolidin-1-yl)-5-fluoropyrimidin-4-yl)amino)methyl)-3-fluoropiperidin-1-yl)acetamide]",10 nM
11,"NC(=O)CN1CC[C@H](CNc2ncnc(N3CCOC[C@@H]3c3ccc(C(F)(F)F)cn3)c2F)[C@H](F)C1 (single isomer, unassigned) [Example H6-12-1, 2-((3R*,4S*)-3-fluoro-4-(((5-fluoro-6-((S)-3-(5-(trifluoromethyl)pyridin-2-yl)morpholino)pyrimidin-4-yl)amino)methyl)piperidin-1-yl)acetamide]",550 nM
12,"NC(=O)CN1CCC(F)(CNc2ncnc(N3CCOC[C@@H]3c3ccc(C(F)(F)F)cn3)c2F)CC1 [Example H6-8, (S)-2-(4-fluoro-4-(((5-fluoro-6-(3-(5-(trifluoromethyl)pyridin-2-yl)morpholino)pyrimidin-4-yl)amino)methyl)piperidin-1-yl)acetamide]",160 nM
13,"NC(=O)CN1CCC(CNc2ncnc(N3CC(F)(F)CC3c3ccc(C(F)(F)F)cc3)c2F)CC1 (centres unmarked) [Example H6-24, 2-(4-(((6-(4,4-difluoro-2-(4-(trifluoromethyl)phenyl)pyrrolidin-1-yl)-5-fluoropyrimidin-4-yl)amino)methyl)piperidin-1-yl)acetamide]",140 nM
14,"NC(=O)CN1CC[C@H](CNc2ncnc(N3CCOC[C@@H]3c3ccc(C(F)(F)F)cc3)c2F)[C@@H](F)C1 (single isomer, unassigned) [Example H6-10-1, 2-((3R*,4R*)-3-fluoro-4-(((5-fluoro-6-((S)-3-(4-(trifluoromethyl)phenyl)morpholino)pyrimidin-4-yl)amino)methyl)piperidin-1-yl)acetamide]",39 nM
15,"NC(=O)CN1CC[C@H](CNc2ncnc(N3CC(F)(F)C[C@@H]3c3ccc(C(F)(F)F)cn3)c2F)[C@@H](F)C1 (single isomer, unassigned) [Example H6-18-2, 2-((3R*,4R*)-4-(((6-((R)-4,4-difluoro-2-(5-(trifluoromethyl)pyridin-2-yl)pyrrolidin-1-yl)-5-fluoropyrimidin-4-yl)amino)methyl)-3-fluoropiperidin-1-yl)acetamide]",60 nM
16,"NC(=O)CN1CC[C@@H](CNc2ncnc(N3CCOC[C@@H]3c3ccc(C(F)(F)F)cc3)c2F)[C@H](O)C1 (single isomer, unassigned) [Example H6-7-2, 2-((3R*,4R*)-4-(((5-fluoro-6-((S)-3-(4-(trifluoromethyl)phenyl)morpholino)pyrimidin-4-yl)amino)methyl)-3-hydroxypiperidin-1-yl)acetamide]",35 nM
17,CC(C(N)=O)N1CCC(CNc2ncnc(N3CCOC[C@@H]3c3ccc(C(F)(F)F)cn3)c2F)CC1 (some centres unmarked) [Example H6-1],910 nM
18,"NC(=O)CN1CCC(CNc2ncnc(N3CCOC[C@@H]3c3ccc(C(F)(F)F)cn3)c2F)CC1 [Example H6-2, (S)-2-(4-(((5-fluoro-6-(3-(5-(trifluoromethyl)pyridin-2-yl)morpholino)pyrimidin-4-yl)amino)methyl)piperidin-1-yl)acetamide]",330 nM
19,"NC(=O)CN1CCC(CNc2ncnc(N3CCOC[C@@H]3c3ccc(C(F)(F)F)cc3)c2F)C(F)(F)C1 (single isomer, unassigned) [Example H6-9-2, 2-((R*)-3,3-difluoro-4-(((5-fluoro-6-((S)-3-(4-(trifluoromethyl)phenyl)morpholino)pyrimidin-4-yl)amino)methyl)piperidin-1-yl)acetamide]",18 nM
20,"NC(=O)CN1CCC(CNc2ncnc(N3C[C@H](F)C[C@@H]3c3ccc(C(F)(F)F)cc3)c2F)CC1 (racemic) [Example H6-27, rac-2-(4-(((5-fluoro-6-((2R,4R)-4-fluoro-2-(4-(trifluoromethyl)phenyl)pyrrolidin-1-yl)pyrimidin-4-yl)amino)methyl)piperidin-1-yl)acetamide]",210 nM
21,"NC(=O)CN1CCC(CNc2ncnc(N3CCOC[C@@H]3c3ccc(C(F)(F)F)cn3)c2F)C(F)(F)C1 (single isomer, unassigned) [Example H6-11-1, 2-((R*)-3,3-difluoro-4-(((5-fluoro-6-((S)-3-(5-(trifluoromethyl)pyridin-2-yl)morpholino)pyrimidin-4-yl)amino)methyl)piperidin-1-yl)acetamide]",360 nM
22,"C[C@@H]1COC[C@H](c2cccc(C(F)(F)F)c2)N1c1ncnc(NC[C@@H]2CCN(CC(N)=O)C[C@H]2O)c1F (single isomer, unassigned) [Example H6-21-4]",120 nM
23,"NC(=O)CN1CC[C@H](CNc2ncnc(N3CCOC[C@@H]3c3ccc(C(F)(F)F)cn3)c2F)[C@H](F)C1 (single isomer, unassigned) [Example H6-12-2, 2-((3R*,4S*)-3-fluoro-4-(((5-fluoro-6-((S)-3-(5-(trifluoromethyl)pyridin-2-yl)morpholino)pyrimidin-4-yl)amino)methyl)piperidin-1-yl)acetamide]",910 nM

# Same assay, conditions: comparison compounds from WO2016020295, Tables 5 and 6; read-out: Gal4 assay IC50
row,Structure (SMILES),IC50
1,"NC(=O)Cc1ccc(CNc2ncnc(N3CCOC[C@@H]3c3ccc(OC(F)(F)F)cc3)c2F)cc1 [Example 230, reference compound]",< 100 nM
2,"NC(=O)CC1CCC(CNc2ncnc(N3CCOC[C@@H]3c3ccc(C(F)(F)F)cc3)c2F)CC1 (some centres unmarked) [Example 206, reference compound]",< 1000 nM
3,"NC(=O)CC1CCC(CNc2ncnc(N3CCOC[C@@H]3c3ccc(OC(F)(F)F)cc3)c2F)CC1 (some centres unmarked) [Example 245, reference compound]",< 500 nM
